Assay results taken from ChEMBL document CHEMBL3045068, “Effect of methomyl and oxamyl soil applications on early control of nematodes and insects” (Pest Manag Sci, 2011).
In brackets after ≈: the same amount, converted by molar mass.

Experiments:
[1] = system: Solanum lycopersicum; test: Phytotoxicity in Solanum lycopersicum (tomato) assessed as foliar edge burn at 200 ug/mL applied through foliar spray after 5 weeks; type: organism-based; conditions: in vivo, other, 840 h
[2] = system: Phaseolus lunatus; test: Phytotoxicity in Phaseolus lunatus (lima bean) plant assessed as emergence at 2.12 kg ai/ha applied to soil measured up to 7 days under green house conditions (reference value: 70 +/- 16%); type: organism-based; conditions: in vivo, other, 168 h
[3] = system: Meloidogyne incognita; test: Nematicidal activity against second juvenile stage of Meloidogyne incognita (root-knot nematode) infected pea plant assessed as root dry weight at 3 kg ai/ha applied to soil measured up to 14 days post planting under green house conditions (reference value: 0.25 +/- 0.041 g); type: functional
[4] = system: Aphis gossypii; test: Insecticidal activity against Aphis gossypii (cotton aphid) infested cotton assessed as mortality applied through foliar spray after 5 days; type: functional
[5] = system: Meloidogyne incognita; test: Nematicidal activity against second juvenile stage of Meloidogyne incognita (root-knot nematode) infected pea plant assessed as plant fresh weight at 4 kg ai/ha applied to soil measured up to 7 days post planting under green house conditions (reference value: 4.3 +/- 0.56 g); type: functional
[6] = system: Pisum sativum; test: Phytotoxicity in Pisum sativum (pea) assessed as plant fresh weight at 4 kg ai/ha applied to soil measured up to 7 days post planting at 27 degC under green house conditions (reference value: 3.9 +/- 0.83 g); type: organism-based; conditions: lathyrus oleraceus, in vivo, other, 168 h
[7] = system: Pisum sativum; test: Phytotoxicity in Pisum sativum (pea) assessed as plant fresh weight at 3 kg ai/ha applied to soil measured up to 7 days post planting at 19 degC (reference value: 9.4 +/- 0.54 g); type: organism-based; conditions: lathyrus oleraceus, in vivo, other, 168 h
[8] = system: Phaseolus lunatus; test: Phytotoxicity in Phaseolus lunatus (lima bean) plant assessed as emergence at 0.56 kg ai/ha under green house conditions applied to soil (reference value: 70 +/- 16%); type: organism-based; conditions: in vivo, other
[9] = system: Meloidogyne incognita; test: Nematicidal activity against second juvenile stage of Meloidogyne incognita (root-knot nematode) infected pea plant assessed as plant fresh weight at 3 kg ai/ha applied to soil measured up to 14 days post planting under green house conditions (reference value: 4.3 +/- 0.56 g); type: functional
[10] = system: Meloidogyne incognita; test: Nematicidal activity against second juvenile stage of Meloidogyne incognita (root-knot nematode) infected lima bean plant assessed as shoot dry weight at 1 kg ai/ha applied to soil measured during planting under green house conditions (reference value: 1.84 +/- 0.18 g); type: functional
[11] = system: Meloidogyne incognita; test: Nematicidal activity against second juvenile stage of Meloidogyne incognita (root-knot nematode) infected pea plant assessed as emergence at 3 kg ai/ha applied to soil measured up to 14 days post planting under green house conditions (reference value: 75 +/- 13%); type: functional
[12] = system: Meloidogyne incognita; test: Nematicidal activity against second juvenile stage of Meloidogyne incognita (root-knot nematode) assessed as mortality at 20 mg ai/L after 48 to 72 hr relative to control; type: functional
[13] = system: Meloidogyne incognita; test: Nematicidal activity against second juvenile stage of Meloidogyne incognita (root-knot nematode) infected lima bean plant assessed as shoot dry weight at 2 kg ai/ha applied to soil measured up to 7 days post planting under green house conditions (reference value: 1.84 +/- 0.18 g); type: functional
[14] = system: Spodoptera exigua; test: Insecticidal activity against Spodoptera exigua infested tomato assessed as mortality applied to soil after 72 hr; type: functional
[15] = system: Trichoplusia ni; test: Insecticidal activity against Trichoplusia ni (cabbage looper) infested cabbage assessed as mortality applied through foliar spray after 72 hr; type: functional
[16] = system: Pisum sativum; test: Phytotoxicity in Pisum sativum (pea) assessed as plant fresh weight at 2 kg ai/ha applied to soil measured up to 7 days post planting at 19 degC (reference value: 9.4 +/- 0.54 g); type: organism-based; conditions: lathyrus oleraceus, in vivo, other, 168 h
[17] = system: Phaseolus lunatus; test: Phytotoxicity in Phaseolus lunatus (lima bean) plant assessed as emergence at 1.12 kg ai/ha applied to soil under green house conditions (reference value: 70 +/- 16%); type: organism-based; conditions: in vivo, other
[18] = system: Phaseolus lunatus; test: Phytotoxicity in Phaseolus lunatus (lima bean) plant assessed as plant dry weight at 1.12 kg ai/ha applied to soil under green house conditions (reference value: 1.20 +/- 0.21 g); type: organism-based; conditions: in vivo, other
[19] = system: Pisum sativum; test: Phytotoxicity in Pisum sativum (pea) assessed as root dry weight at 3 kg ai/ha applied to soil measured up to 14 days post planting at 27 degC under green house conditions (reference value: 0.33 +/- 0.075 g); type: organism-based; conditions: lathyrus oleraceus, in vivo, other, 336 h
[20] = system: Pisum sativum; test: Phytotoxicity in Pisum sativum (pea) assessed as plant height at 4 kg ai/ha applied to soil measured up to 7 days post planting at 19 degC (reference value: 6.2 +/- 0.6 cm); type: organism-based; conditions: lathyrus oleraceus, in vivo, other, 168 h
[21] = system: Pisum sativum; test: Phytotoxicity in Pisum sativum (pea) assessed as emergence at 2 kg ai/ha applied to soil measured up to 7 days post planting at 19 degC relative to untreated control; type: organism-based; conditions: lathyrus oleraceus, in vivo, other, 168 h
[22] = system: Meloidogyne incognita; test: Nematicidal activity against second juvenile stage of Meloidogyne incognita (root-knot nematode) infected pea plant assessed as root fresh weight at 4 kg ai/ha applied to soil measured up to 14 days post planting under green house conditions (reference value: 1.83 +/- 0.3 g); type: functional
[23] = system: Phaseolus lunatus; test: Phytotoxicity in Phaseolus lunatus (lima bean) plant assessed as emergence at 2.56 kg ai/ha applied to soil measured up to 14 days under green house conditions (reference value: 70 +/- 16%); type: organism-based; conditions: in vivo, other, 336 h
[24] = system: Meloidogyne incognita; test: Nematicidal activity against second juvenile stage of Meloidogyne incognita (root-knot nematode) infected lima bean plant assessed as emergence at 2 kg ai/ha applied to soil measured up to 7 days post planting under green house conditions (reference value: 83 +/- 5%); type: functional
[25] = system: Meloidogyne incognita; test: Nematicidal activity against second juvenile stage of Meloidogyne incognita (root-knot nematode) infected lima bean plant assessed as emergence at 3 kg ai/ha applied to soil measured up to 7 days post planting under green house conditions (reference value: 83 +/- 5%); type: functional
[26] = system: Pisum sativum; test: Phytotoxicity in Pisum sativum (pea) assessed as plant fresh weight at 3 kg ai/ha applied to soil measured up to 7 days post planting at 27 degC under green house conditions (reference value: 3.9 +/- 0.83 g); type: organism-based; conditions: lathyrus oleraceus, in vivo, other, 168 h
[27] = system: Pisum sativum; test: Phytotoxicity in Pisum sativum (pea) assessed as plant height at 2 kg ai/ha applied to soil measured up to 7 days post planting at 27 degC under green house conditions (reference value: 9.6 +/- 1.5 cm); type: organism-based; conditions: lathyrus oleraceus, in vivo, other, 168 h
[28] = system: Meloidogyne incognita; test: Nematicidal activity against second juvenile stage of Meloidogyne incognita (root-knot nematode) infected lima bean plant assessed as root dry weight at 2 kg ai/ha applied to soil measured up to 7 days post planting under green house conditions (reference value: 0.5 +/- 0.052 g); type: functional
[29] = system: Meloidogyne incognita; test: Nematicidal activity against second juvenile stage of Meloidogyne incognita (root-knot nematode) infected pea plant assessed as root fresh weight at 2 kg ai/ha applied to soil measured up to 7 days post planting under green house conditions (reference value: 1.83 +/- 0.3 g); type: functional
[30] = system: Phaseolus lunatus; test: Phytotoxicity in Phaseolus lunatus (lima bean) plant assessed as plant dry weight at 0.56 kg ai/ha applied to soil under green house conditions (reference value: 1.20 +/- 0.21 g); type: organism-based; conditions: in vivo, other

Structure (SMILES): CNC(=O)ON=C(C)SC [METHOMYL]
- Activity [1]: Non-toxic
- Activity [2]: 80%
- Activity [3]: 0.25 g
- LC90 [4]: 54 µg/mL (≈ 333 µM)
- LC50 ([4]; Aphis gossypii, foliar, 120 h): 25 µg/mL (≈ 154 µM)
- Activity [5]: 5.5 g
- Activity [6]: 3.1 g
- Activity [7]: 9.4 g
- Activity [8]: 80%
- Activity [9]: 5.2 g
- Activity [10]: 1.79 g
- Activity [11]: 63%
- mortality at 20 µg/mL [12]: 95%
- Activity [13]: 1.83 g
- LC90 [14]: 30 µg/mL (≈ 185 µM)
- LC50 ([14]; Spodoptera exigua, soil, 72 h): 18 µg/mL (≈ 111 µM)
- LC90 [15]: 533 µg/mL (≈ 3290 µM)
- LC50 ([15]; Trichoplusia ni, foliar, 72 h): 99 µg/mL (≈ 610 µM)
- Activity [16]: 11.6 g
- Activity [17]: 80%
- Activity [18]: 1.51 g
- Activity [19]: 0.27 g
- Activity [20]: 6.3 cm
- Activity [21]: 93%
- Activity [22]: 1.36 g
- Activity [23]: 80%
- Activity [24]: 100%
- Activity [25]: 83%
- Activity [26]: 3.3 g
- Activity [27]: 7.1 cm
- Activity [28]: 0.38 g
- Activity [29]: 2.04 g
- Activity [30]: 1.2 g
